Each structure is given as a SMILES string. Some results are limits rather than exact numbers.

The values below come from US20100190788A1, “Amide derivatives as kinase inhitors” (priority 2005, published 2010).

The target of one assay is T1, human ROCKα/ROCKII mix (Homo sapiens, UniProt O75116).
T1 construct: purchased Upstate Biotechnology 14-451
T1 sequence (O75116 whole entry): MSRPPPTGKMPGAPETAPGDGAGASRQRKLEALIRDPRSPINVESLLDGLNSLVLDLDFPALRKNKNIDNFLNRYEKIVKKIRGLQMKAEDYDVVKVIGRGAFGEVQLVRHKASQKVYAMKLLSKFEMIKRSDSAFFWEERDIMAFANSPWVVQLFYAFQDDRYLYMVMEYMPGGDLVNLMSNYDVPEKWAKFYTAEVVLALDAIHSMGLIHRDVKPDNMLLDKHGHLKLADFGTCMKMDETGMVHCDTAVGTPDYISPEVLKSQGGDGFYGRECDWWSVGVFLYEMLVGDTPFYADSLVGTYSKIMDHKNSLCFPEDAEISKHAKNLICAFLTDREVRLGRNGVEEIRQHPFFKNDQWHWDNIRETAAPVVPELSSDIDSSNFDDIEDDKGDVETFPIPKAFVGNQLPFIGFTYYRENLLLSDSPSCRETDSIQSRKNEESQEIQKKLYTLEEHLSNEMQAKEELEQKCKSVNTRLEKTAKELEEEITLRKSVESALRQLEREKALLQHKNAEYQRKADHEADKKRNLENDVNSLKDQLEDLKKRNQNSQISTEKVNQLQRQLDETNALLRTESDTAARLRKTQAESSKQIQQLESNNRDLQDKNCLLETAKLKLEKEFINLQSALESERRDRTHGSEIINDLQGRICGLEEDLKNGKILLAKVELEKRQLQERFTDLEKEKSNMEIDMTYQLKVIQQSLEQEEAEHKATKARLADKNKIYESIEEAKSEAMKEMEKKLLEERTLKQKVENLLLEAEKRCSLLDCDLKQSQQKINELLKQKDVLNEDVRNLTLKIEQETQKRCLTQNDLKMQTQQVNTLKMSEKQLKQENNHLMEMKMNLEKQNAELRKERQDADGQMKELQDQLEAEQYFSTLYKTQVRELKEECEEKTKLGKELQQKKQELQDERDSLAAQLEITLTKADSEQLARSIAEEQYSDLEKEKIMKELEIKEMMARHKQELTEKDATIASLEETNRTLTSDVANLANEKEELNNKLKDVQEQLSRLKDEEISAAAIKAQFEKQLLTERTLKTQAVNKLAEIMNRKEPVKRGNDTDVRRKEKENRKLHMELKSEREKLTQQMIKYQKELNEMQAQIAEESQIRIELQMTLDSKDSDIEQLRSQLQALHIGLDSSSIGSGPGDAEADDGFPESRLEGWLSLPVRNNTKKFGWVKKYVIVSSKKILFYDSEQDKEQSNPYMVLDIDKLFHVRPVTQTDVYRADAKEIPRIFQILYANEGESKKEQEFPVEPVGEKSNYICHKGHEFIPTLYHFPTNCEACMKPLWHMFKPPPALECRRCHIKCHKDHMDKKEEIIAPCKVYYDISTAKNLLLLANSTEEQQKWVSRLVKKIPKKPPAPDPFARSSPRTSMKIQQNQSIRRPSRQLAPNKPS
Description: ROCK inhibition, fluorescence polarization (FP) assay with ROCK IMAP Kit. In kind it is biochemical. Particulars: Table 1, compounds of Formula IV20. Here is the method: The compounds were tested for inhibition of human ROCKα/ROCKII mix.
The inhibition assays were performed with a fluorescence polarization (FP) assay using the commercially available ROCK IMAP Kit from Molecular Devices (Product ID. No. R8093), essentially in accordance with the protocol supplied by the manufacturer. […] The enzyme mix ROCKα/ROCKII was obtained from Upstate Biotechnology (Product ID No 14-451).
In summary, all compounds were screened in the wells of a 384 well plate for enzymatic inhibition with concentrations varying from 100 μM to 0.3 nM using a stepwise 3 (or 2)-fold dilution.
To perform the assay, 1 μl of a solution of the compound to be tested in DMSO (at each concentration) was added to 2 μl of a solution of the enzyme in 10 mM Tris-HCl, 10 mM MgCl2, 0.1% BSA, 0.05% NaN3, pH 7.2. The final concentration of the enzyme was 2.6 nM.
After incubating for 30 minutes at RT, 2 μl of a mixture of ATP and the protein substrate in 10 mM Tris-HCl, 10 mM MgCl2, 0.1% BSA, 0.05% NaN3, pH 7.2 was added. The final concentration of the ATP was 10 μM and final concentration of protein substrate was 0.2 μM.
After incubating for 60 minutes at RT, 12 μl of the IMAP Binding Solution (mix of the IMAP Binding Buffer A (1×) and the IMAP Binding Reagent (from the ROCK IMAP kit)) was added.
The mixture thus obtained (total volume: 17 μl) was incubated for 60 minutes at RT, upon which the fluorescence polarization was measured using an automated plate reader (Perkin Elmer, Model Envision 2100-0010 HTS) with FP filters: excitation filter FITC FP 480 and emission filters FITC FP P-pol 535 and FITC FP S-pol 535 (Perkin-Elmer). The results were fitted to a curve using the XL-Fit algorithm and IC50 values were calculated for each fitted curve, again using the XL-Fit algorithm.
In the case of `COCCNC(=O)C(N)c1ccc(C(=O)Nc2ccncc2)cc1` (centres unmarked) [Compound 39, 4-[amino-(2-methoxy-ethylcarbamoyl)-methyl]-N-pyridin-4-yl-benzamide], the concentration for half-maximal inhibition (IC50) – broadly, the concentration that gives 50% inhibition – was in the range of 0.5 to 5 µM.

On to `CS(=O)(=O)NCCNC(=O)C(N)c1ccc(C(=O)Nc2ccncc2)cc1` (centres unmarked) [Compound 40, 4-[amino-(2-methanesulfonylamino-ethylcarbamoyl)-methyl]-N-pyridin-4-yl-benzamide], for which the IC50 is 0.5 to 5 µM.

As to `CONC(=O)C(N)c1ccc(C(=O)Nc2ccncc2)cc1` (centres unmarked) [Compound 41, 4-(amino-methoxycarbamoyl-methyl)-N-pyridin-4-yl-benzamide], the 50% inhibitory concentration (IC50) is 0.5 to 5 µM.

In turn, `CN(CCO)C(=O)C(N)c1ccc(C(=O)Nc2ccncc2)cc1` (centres unmarked) [Compound 42, 4-{amino-[(2-hydroxy-ethyl)-methyl-carbamoyl]-methyl}-N-pyridin-4-yl-benzamide] displayed an IC50 of 0.5 to 5 µM.

As to `COCC(C)NC(=O)C(N)c1ccc(C(=O)Nc2ccncc2)cc1` (centres unmarked) [Compound 43, 4-[amino-(2-methoxy-1-methyl-ethylcarbamoyl)-methyl]-N-pyridin-4-yl-benzamide], the IC50 lay in the range of 0.5 to 5 µM.

`CN(C)CCNC(=O)C(N)c1ccc(C(=O)Nc2ccncc2)cc1` (centres unmarked) [Compound 44] registered an IC50 of 0.5 to 5 µM.

The molecule `NC(C(=O)NCCN1CCOCC1)c1ccc(C(=O)Nc2ccncc2)cc1` (centres unmarked) [Compound 45, 4-[amino-(2-morpholin-4-yl-ethylcarbamoyl)-methyl]-N-pyridin-4-yl-benzamide] came in with an IC50 of 0.5 to 5 µM.

As to `CC(C)N1CCN(C(=O)C(N)c2ccc(C(=O)Nc3ccncc3)cc2)CC1` (centres unmarked) [Compound 46, 4-[1-amino-2-(4-isopropyl-piperazin-1-yl)-2-oxo-ethyl]-N-pyridin-4-yl-benzamide], the IC50 lay in the range of 0.5 to 5 µM.

On to `NC(C(=O)N1CCN(c2ccccc2)CC1)c1ccc(C(=O)Nc2ccncc2)cc1` (centres unmarked) [Compound 47, 4-[1-amino-2-oxo-2-(4-phenyl-piperzin-1-yl)-ethyl]-N-pyridin-4-yl-benzamide], for which the IC50 lay within 0.5 to 5 µM.

The molecule `NC(C(=O)N1CCN(Cc2ccccc2F)CC1)c1ccc(C(=O)Nc2ccncc2)cc1` (centres unmarked) [Compound 48, 4-{1-amino-2-[4-(2-fluoro-benzyl)-piperazin-1-yl]-2-oxo-ethyl}-N-pyridin-4-yl-benzamide] gave an IC50 of 0.5 to 5 µM.

`NC(C(=O)N1CCN(Cc2ccc(F)cc2)CC1)c1ccc(C(=O)Nc2ccncc2)cc1` (centres unmarked) [Compound 49, 4-{1-amino-2-[4-(4-fluoro-benzyl)-piperazin-1-yl]-2-oxo-ethyl}-N-pyridin-4-yl-benzamide] had an IC50 of 0.5 to 5 µM.

In the case of `COc1ccc(CN2CCN(C(=O)C(N)c3ccc(C(=O)Nc4ccncc4)cc3)CC2)cc1` (centres unmarked) [Compound 50, 4-{1-amino-2-[4-(4-methoxy-benzyl)-piperazin-1-yl]-2-oxo-ethyl}-N-pyridin-4-yl-benzamide], the IC50 was in the range of 0.5 to 5 µM.

`NC(C(=O)NC1CCN(Cc2ccccc2)CC1)c1ccc(C(=O)Nc2ccncc2)cc1` (centres unmarked) [Compound 51, 4-{amino-[1-benzyl-piperidin-4-ylcarbamoyl]-methyl}-N-pyridin-4-yl-benzamide]: the IC50 is 0.5 to 5 µM.

For `NC(C(=O)N1CCN(CCO)CC1)c1ccc(C(=O)Nc2ccncc2)cc1` (centres unmarked) [Compound 52, 4-{1-amino-2-[4-(2-hydroxy-ethyl)-piperazin-1-yl]-2-oxo-ethyl}-N-pyridin-4-yl-benzamide], the IC50 lay in the range of 0.5 to 5 µM.

Consider `Cc1ccc(CN2CCC(NC(=O)C(N)c3ccc(C(=O)Nc4ccncc4)cc3)CC2)s1` (centres unmarked) [Compound 53, 4-{amino-[1-(5-methyl-thiophen-2-ylmethyl)-piperidin-4-ylcarbamoyl]-methyl}-N-pyridin-4-yl-benzamide], for which the half-inhibitory concentration (IC50) was in the range of 0.5 to 5 µM.

In the case of `CCCCNNC(=O)C(N)c1ccc(C(=O)Nc2ccncc2)cc1` (centres unmarked) [Compound 54, 4-[amino-(N′-butyl-hydrazinocarbonyl)-methyl]-N-pyridin-4-yl-benzamide], the IC50 is < 0.5 µM.

The same assay, now with this note: Table 2, compounds of Formula V20.
`CS(=O)(=O)NCC(N)c1ccc(C(=O)Nc2ccncc2)cc1` (centres unmarked) [Compound 55, 4-(1-amino-2-methanesulfonylamino-ethyl)-N-pyridin-4-yl-benzamide]: the IC50 was < 0.5 µM.

Regarding `CCS(=O)(=O)NCC(N)c1ccc(C(=O)Nc2ccncc2)cc1` (centres unmarked) [Compound 56], the IC50 is < 0.5 µM.

For the molecule `CCCS(=O)(=O)NCC(N)c1ccc(C(=O)Nc2ccncc2)cc1` (centres unmarked) [Compound 57, 4-[1-amino-2-(propane-1-sulfonylamino)-ethyl]-N-pyridin-4-yl-benzamide], the IC50 is < 0.5 µM.

Take `CCCCS(=O)(=O)NCC(N)c1ccc(C(=O)Nc2ccncc2)cc1` (centres unmarked) [Compound 58, 4-[1-amino-2-(butane-1-sulfonylamino)-ethyl]-N-pyridin-4-yl-benzamide]: the IC50 is < 0.5 µM.

For `CCCCCCCCS(=O)(=O)NCC(N)c1ccc(C(=O)Nc2ccncc2)cc1` (centres unmarked) [Compound 59, 4-[1-amino-2-(octane-1-sulfonylamino)-ethyl]-N-pyridin-4-yl-benzamide], the IC50 is 0.5 to 5 µM.

`NC(CNS(=O)(=O)Cc1ccccc1)c1ccc(C(=O)Nc2ccncc2)cc1` (centres unmarked) [Compound 60, 4-(1-amino-2-phenylmethanesulfonylamino-ethyl)-N-pyridin-4-yl-benzamide]: the IC50 is < 0.5 µM.

On to `NC(CNS(=O)(=O)c1ccccc1)c1ccc(C(=O)Nc2ccncc2)cc1` (centres unmarked) [Compound 61, 4-(1-amino-2-benzenesulfonylamino-ethyl)-N-pyridin-4-yl-benzamide], for which the IC50 is < 0.5 µM.

Turning to `Cc1ccc(S(=O)(=O)NCC(N)c2ccc(C(=O)Nc3ccncc3)cc2)cc1` (centres unmarked) [Compound 62, 4-[1-amino-2-(4-methyl-benzenesulfonylamino)-ethyl]-N-pyridin-4-yl-benzamide], the concentration for half-maximal inhibition (IC50) was < 0.5 µM.

Regarding `Cc1cccc(S(=O)(=O)NCC(N)c2ccc(C(=O)Nc3ccncc3)cc2)c1` (centres unmarked) [Compound 63], the IC50 was < 0.5 µM.

Consider `Cc1ccccc1S(=O)(=O)NCC(N)c1ccc(C(=O)Nc2ccncc2)cc1` (centres unmarked) [Compound 64, 4-[1-amino-2-(2-methyl-benzenesulfonylamino)-ethyl]-N-pyridin-4-yl-benzamide], for which the IC50 is < 0.5 µM.

Turning to `NC(CNS(=O)(=O)c1ccc(F)cc1)c1ccc(C(=O)Nc2ccncc2)cc1` (centres unmarked) [Compound 65, 4-[1-amino-2-(4-fluoro-benzenesulfonylamino)-ethyl]-N-pyridin-4-yl-benzamide], the IC50 is < 0.5 µM.

In the case of `NC(CNS(=O)(=O)c1ccccc1F)c1ccc(C(=O)Nc2ccncc2)cc1` (centres unmarked) [Compound 66, 4-[1-amino-2-(2-fluoro-benzenesulfonylamino)-ethyl]-N-pyridin-4-yl-benzamide], the IC50 was < 0.5 µM.

Regarding `NC(CNS(=O)(=O)c1ccc(Cl)cc1)c1ccc(C(=O)Nc2ccncc2)cc1` (centres unmarked) [Compound 67, 4-[1-amino-2-(4-chloro-benzenesulfonylamino)-ethyl]-N-pyridin-4-yl-benzamide], the IC50 is < 0.5 µM.

On to `NC(CNS(=O)(=O)c1cccc(Cl)c1)c1ccc(C(=O)Nc2ccncc2)cc1` (centres unmarked) [Compound 68, 4-[1-amino-2-(3-chloro-benzenesulfonylamino)-ethyl]-N-pyridin-4-yl-benzamide], for which the concentration for half-maximal inhibition (IC50) was < 0.5 µM.

As to `NC(CNS(=O)(=O)c1ccccc1Cl)c1ccc(C(=O)Nc2ccncc2)cc1` (centres unmarked) [Compound 69, 4-[1-amino-2-(2-chloro-benzenesulfonylamino)-ethyl]-N-pyridin-4-yl-benzamide], the IC50 is < 0.5 µM.

As to `COc1ccc(S(=O)(=O)NCC(N)c2ccc(C(=O)Nc3ccncc3)cc2)cc1` (centres unmarked) [Compound 70, 4-[1-amino-2-(4-methoxy-benzenesulfonylamino)-ethyl]-N-pyridin-4-yl-benzamide], the half-inhibitory concentration (IC50) is < 0.5 µM.

Take `COc1ccc(S(=O)(=O)NCC(N)c2ccc(C(=O)Nc3ccncc3)cc2)cc1OC` (centres unmarked) [Compound 71, 4-[1-amino-2-(3,4-dimethoxy-benzenesulfonylamino)-ethyl]-N-pyridin-4-yl-benzamide]: the 50% inhibitory concentration (IC50) was < 0.5 µM.

Regarding `COc1ccc(OC)c(S(=O)(=O)NCC(N)c2ccc(C(=O)Nc3ccncc3)cc2)c1` (centres unmarked) [Compound 72, 4-[1-amino-2-(2,5-dimethoxy-benzenesulfonylamino)-ethyl]-N-pyridin-4-yl-benzamide], the IC50 was < 0.5 µM.

On to `NC(CNS(=O)(=O)c1cccc(Oc2ccccc2)c1)c1ccc(C(=O)Nc2ccncc2)cc1` (centres unmarked) [Compound 73, 4-[1-amino-2-(3-phenoxy-benzenesulfonylamino)-ethyl]-N-pyridin-4-yl-benzamide], for which the half-maximal inhibitory concentration (IC50) was in the range of 0.5 to 5 µM.

The molecule `NC(CNS(=O)(=O)c1ccc(Oc2ccccc2)cc1)c1ccc(C(=O)Nc2ccncc2)cc1` (centres unmarked) [Compound 74, 4-[1-amino-2-(4-phenoxy-benzenesulfonylamino)-ethyl]-N-pyridin-4-yl-benzamide] registered a concentration for half-maximal inhibition (IC50) of 0.5 to 5 µM.

The molecule `NC(CNS(=O)(=O)c1cccc(-c2ccccc2)c1)c1ccc(C(=O)Nc2ccncc2)cc1` (centres unmarked) [Compound 75] gave an IC50 of 0.5 to 5 µM.

For `NC(CNS(=O)(=O)c1ccc(-c2ccccc2)cc1)c1ccc(C(=O)Nc2ccncc2)cc1` (centres unmarked) [Compound 76], the half-maximal inhibitory concentration (IC50) was 0.5 to 5 µM.
